# Laboratory results taken from US20240158339A1, “TYRAMINE CONTAINING HYDROXYCINNAMIC ACID AMIDE DERIVATIVES AND METHODS OF USE THEREOF” (Brightseed, Inc., priority 2018, published 2024).
# “Also recorded” adds a separate entry of the source.
# Experiments:
# HNF4α = target: T1, HNF4α (Homo sapiens, UniProt P41235); test: Insulin promoter activity assay (HNF4α assay) in T6PNE cells; assay type: cell-based; conditions: for HNF4α activation / bioactivity (screening result in words): HNF4α assay, screening and SAR statements
# T1 construct: T6PNE cells (Kiselyuk, et al. (2012) Chem. Biol. 19(7):806-818; Kiselyuk, et al. (2010) J. Biomol; endogenous in cells; host or cells: T6PNE cells
# T1 sequence (P41235 1-474): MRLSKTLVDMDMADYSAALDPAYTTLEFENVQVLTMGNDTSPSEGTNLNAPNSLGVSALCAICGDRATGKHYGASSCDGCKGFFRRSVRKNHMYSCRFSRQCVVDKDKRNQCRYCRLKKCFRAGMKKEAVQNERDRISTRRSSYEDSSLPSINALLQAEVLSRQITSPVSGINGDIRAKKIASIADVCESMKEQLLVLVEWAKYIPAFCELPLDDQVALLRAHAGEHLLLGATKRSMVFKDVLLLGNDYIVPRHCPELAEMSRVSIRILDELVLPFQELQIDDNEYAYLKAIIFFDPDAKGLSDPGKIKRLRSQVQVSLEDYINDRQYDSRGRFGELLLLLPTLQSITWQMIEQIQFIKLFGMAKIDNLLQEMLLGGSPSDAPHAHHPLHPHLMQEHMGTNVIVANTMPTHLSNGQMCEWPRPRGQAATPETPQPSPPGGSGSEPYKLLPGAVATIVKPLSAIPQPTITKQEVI
# Protocol: Insulin Promoter Activity. T6PNE cells (Kiselyuk, et al. (2012) Chem. Biol. 19(7):806-818; Kiselyuk, et al. (2010) J. Biomol. Screen 15(6):663-70) are seeded at 2000 cells per well in 384-well tissue culture plates in the presence of 1 μM tamoxifen and 0.03 mM palmitate. After a 24-hour incubation, a compound of the invention is added to the cells. Forty-eight hours after compound addition, cells are fixed in 4% paraformaldehyde and stained with DAPI. Blue (DAPI) and green (human insulin promoter driving GFP) channels are imaged.
# Inhibition of HNF4α GFP Expression. Using the insulin promoter assay described herein, activity of HNF4α was assessed in the presence of BI-6015 (0, 2.5, 5 μM), a known antagonist of HNF4α (Kiselyuk, et al. (2012) Chem. Biol. 19(7):806-818), in combination with N-trans-caffeoyltyramine (0, 5, 10, 20 μM).
# Given the role of HNF4α in maintaining a health metabolism in humans, test compounds were screened for activity as HNF4α agonists (either direct or indirect effects). Using a known insulin promoter-reporter assay Kiselyuk and colleagues (2010. J. Biomol. Screen 15(6):663-70) screened a library of compounds for activity to promote insulin activation. […] The OTC promoter is known to be responsive to HNF4α in transient transfection assays (Inoue, et al. (2002) J. Biol. Chem. 277:25257-65).
# Plant compounds in the top 10th percentile of similarity to the 18 target structures were selected and compounds predicted to be potential agonists of HNF4α activity given their chemical structural features were screened in the HNF4α assay.
# insulin mRNA = test: Insulin mRNA levels by quantitative PCR; assay type: cell-based; conditions: FIG. 2
# Protocol: (§1) Expression of Insulin and HNF4α. RNA was purified using a RNEASY® chromatographic separation and isolation kits (Qiagen), and converted to cDNA using the gScript™ cDNA SuperMix (Quanta Biosciences). Q-PCR was conducted with cDNA corresponding to 2 μg of RNA using an Opticon Real-Time System (MJ Research) and QPCR SuperMix (BioPioneer). See All mRNA values were normalized to 18S rRNA values and are expressed as fold changes over vehicle-treated control.
# HNF4α mRNA = HNF4α mRNA levels by quantitative PCR; assay type: cell-based; conditions: FIG. 3
# Protocol: as §1
# T6PNE cells = test: Lipid clearance (steatosis assay) in T6PNE cells; assay type: cell-based; conditions: for fat accumulation: T6PNE cells, 0.25 mM palmitate, 10 μM compound
# Protocol: T6PNE cells were pretreated for 1 day with 0.06 mM, 0.12 mM or 0.25 mM palmitate at which time 15 μM N-trans-caffeoyltyramine or control (DMSO) was added. Cells were harvested on day 3, 6 and 8 and subjected to staining with Nile Red and […]. Results are expressed as fold change in Nile Red staining: +palmitate/10% FBS medium (no palmitate).
# (§2) Lipid Clearance in HepG2 and T6PNE Cells (Steatosis Assay). The steatosis assay was carried out as described (Kiselyuk, et al. (2012) Chem. Biol. 19(7):806-818) with the exception of the drug concentration, which was 20 μM for N-trans-caffeoyltyramine with 0.25 mM palmitate in HepG2 cell lines, and 10 μM of either N-trans-caffeoyltyramine, N-trans-caffeoyltyramine, or p-coumaroyltyramine, with 0.25 mM palmitate in T6PNE cell lines. Steatosis was assessed using the Oil Red O Method for Fats kits (Poly Scientific; Warrington, PA), per manufacturer's guidelines. Briefly, frozen tissue slides or fixed cells were incubated in neat propylene glycol for 2 minutes and Oil Red O solution for […] for slides or 1 hour for fixed cells, differentiated in 85% propylene glycol solution for 1 minute, washed twice with distilled water and stained in Hematoxylin of 10 seconds. Slides were mounted with glycerin jelly mounting medium.
# E47MER = test: Counter-screen for estrogenic activity (E47MER luciferase reporter in HeLa cells); assay type: cell-based, human; conditions: with 1 μM or without tamoxifen, FIG. 5
# Protocol: Counter-Screen for Estrogenic Activity. Estrogenic activity was monitored by co-transfection of a reporter plasmid containing a multimerized E-box 5′ of a minimal promoter fused to the Firefly luciferase gene with wild-type E47 or E47MER (Kiselyuk, et al. (2010) J. Biomol. Screen 15(6):663-70). HeLa cells were transfected using polyethylenimine, 0.2 μg 4RTK-Luc plasmid and either 0.3 μg of human E47, E47MER or pMSCVhph vector in 50 μl of serum-free Dulbecco's modification of Eagle medium per well. Transfections included Renilla luciferase (pRL-TK) plasmid as a control for transfection efficacy. Transfection conditions were as described in the PPRE-Luc reporter assay of Kiselyuk, et al. ((2010) J. Biomol. Screen 15(6):663-70). Sixteen hours after transfection, culture media were changed and maintained for 48 hours with tamoxifen and/or compound or vehicle (DMSO). Cells were then lysed and assayed for luciferase activity using the Promega DUAL-LUCIFERASE® reporter assay kit (Promega Corp., Madison, WI), and luminescence was measured using the Veritas™ Microplate Luminometer (Turner Biosystems, Sunnyvale, CA). Data were normalized to Renilla luciferase (pRL-TK) and expressed as fold-change over vehicle alone.
# HepG2 cells = test: Lipid clearance (steatosis assay) in HepG2 cells; assay type: cell-based; conditions: HepG2 liver cells, 20 μM
# Protocol: as §2
# pH stability assessment = assay type: physicochemical; conditions: pH 2, 7.4, 8.5 and 10, 37° C., 0.5 vs 72 hours
# Protocol: pH Stability Assessment. Individual stock solutions were prepared in DMSO at concentrations of 10 mg/mL. Four different buffer solution s were prepared to achieve solutions with a pH of 2, 7.4, 8.5 and 10. For each pH assay, 5 μL of stock solution was added to 245 μL of buffered solution to a 2 mL tube, vortexed and incubated in a 37° C. water bath. At each timepoint, 50 μL aliquots were taken, neutralized and analyzed via HPLC analysis using a DAD detector at 280 nm. The fold change of the peak area at 280 nm was analyzed for the initial and final timepoint, 0.5 and 72 hours, respectively.
# [1] = Bioavailability determination in male C57BL/6 mice; conditions: IV 2 mg/kg vs oral or IP 30 mg/kg, route not stated in Table 3
Structure (SMILES),HNF4α activation / bioactivity (screening result in words) (HNF4α),insulin gene expression (insulin mRNA),HNF4α gene expression (HNF4α mRNA),further results
"Cc1ccc([N+](=O)[O-])cc1S(=O)(=O)n1c(C)nc2ccccc21 [BI-6015, reference compound]",,,,"effect on N-trans-caffeoyltyramine-mediated increases in insulin expression (HNF4α; BI-6015 0, 2.5, 5 μM with N-trans-caffeoyltyramine 0, 5, 10, 20 μM, FIG. 4): inhibited"
O=C(C=Cc1ccccc1)NCCc1ccccc1 [N-2-phenylethylcinnamide],complete loss of bioactivity,,,
O=C(/C=C/c1ccc(O)cc1)NCCc1ccc(O)c(O)c1 [N-coumaroyldopamine],complete loss of HNF4α activation,inactive,inactive,
O=C(/C=C/c1ccc(O)cc1)NCC(O)c1ccc(O)cc1 (centres unmarked) [p-coumaroyloctopamine],,inactive,inactive,
COc1cc(/C=C\C(=O)NCCc2ccc(O)cc2)ccc1O [cis-feruloyltyramine],complete loss of HNF4α activation,inactive,inactive,
O=C(/C=C/c1ccc(O)cc1)NCCc1ccc(O)cc1 [p-coumaroyltyramine],able to act as HNF4α modulators,upregulated,upregulated,HNF4α activation / bioactivity (screening result in words) (HNF4α; listed as N-trans-coumaroyltyramine): additional reduction but not eradication of bioactivity; fat accumulation (T6PNE cells): inhibition of fat accumulation
COc1cc(/C=C/C(=O)NCC(O)c2ccc(O)cc2)ccc1O (stereo not drawn) [N-trans-feruloyloctopamine],complete loss of HNF4α activation,inactive,inactive,
"O=C(C=CCCc1ccccc1)CCc1ccccc1 [1,7-diphenylhept-4-en-3-one]",complete loss of bioactivity,,,
COc1cc(/C=C/C(=O)NCCc2ccc(O)cc2)ccc1O [N-trans-feruloyltyramine],able to act as HNF4α modulators; also recorded: reduces but does not eradicate bioactivity,upregulated,upregulated,"lipid accumulation when palmitate was added prior to compound (T6PNE cells; T6PNE cells pretreated 1 day with 0.06-0.25 mM palmitate, 15 μM compound, Nile Red, FIG. 6): can reverse fat accumulation; fat accumulation (T6PNE cells): inhibition of fat accumulation; estrogenic activity (E47MER): did not exhibit estrogenic activity; clearing of fats, Oil Red O staining (HepG2 cells): capable of clearing harmful fats from the liver; accumulation of fats (HepG2 cells; 0.25 mM palmitate): inhibited accumulation of fats; pH Stability (pH stability assessment): Stable; bioavailability [1]: ~7%"
